Measurements as given in US20060166866A1, “Cell adhesion inhibitors” (Biogen, Inc., a Massachusetts corporation, priority 1995, published 2006).
pIC50: −log10 of the molar value.

Target: T1, VLA4 (Homo sapiens, UniProt P05556+P13612)
T1 construct: endogenous in cells; host or cells: Ramos cells
Experiment: Inhibition of VLA4-dependent adhesion to BSA-CS1 (fluorescently labelled Ramos cells)
Assay type: cell-based
Conditions: binding of BCECF-labelled Ramos cells to CS1 peptide-coated wells, 2 mM MnCl2, 30 minutes at room temperature
From the text: For example, the cell adhesion inhibitory activity of these compounds may be measured by determining the concentration of inhibitor required to block the binding of VLA-4-expressing cells to fibronectin- or CS1-coated plates. In this assay microtiter wells are coated with either fibronectin (containing the CS-1 sequence) or CS-1. If CS-1 is used, it must be conjugated to a carrier protein, such as bovine serum albumin, in order to bind to the wells. Once the wells are coated, varying concentrations of the test compound are then added together with appropriately labelled, VLA-4-expressing cells. Alternatively, the test compound may be added first and allowed to incubate with the coated wells prior to the addition of the cells. The cells are allowed to incubate in the wells format least 30 minutes. Following incubation, the wells are emptied and washed. Inhibition of binding is measured by quantitating the fluorescence or radioactivity bound to the plate for each of the various concentrations of test compound, as well as for controls containing no test compound.
VLA-4-expressing cells that may be utilized in this assay include Ramos cells, Jurkat cells, A375 melanoma cells, as well as human peripheral blood lymophocytes (PBLs). The cells used in this assay may be fluorescently or radioactively labelled.
This assay was used to assess the potency of VLA4-directed inhibitory compounds of this invention.
1. Conjugation of CS1 to BSA
We dissolved BSA-SMCC (Pierce Chemical, Rockford, Ill.; Catalog,# 77115) in H2O at a concentration of 10 mg/mL. [SEQ ID NO:4]:Cys-Tyr-Asp-Glu-Leu-Pro-Gln-Leu-Val-Thr-Leu-Pro-His-Pro-Asn-Leu-His-GIy-Pro-Glu-Ile-Leu-Asp-Val-Pro-Ser-Thr (“Cys-Tyr-CS1 peptide”), which we synthesized by conventional solid phase chemistry and purified by HPLC, was dissolved in 10 mM HEPES pH 5, 50 mM NaCl and 0.1 mM EDTA also at a concentration of 10 mg/mL. We then mixed 500 μL of BSA-SMCC, 250 μL of Cys-Tyr-CS1 peptide and 75 μL of […] and allowed the conjugation reaction to proceed for 30 minutes. We stopped the reaction by adding 1 μL of beta-mercaptoethanol. Samples were analyzed for cross-linking by SDS-PAGE. This reaction produced multiple molecules of the Cys-Tyr-CS1 peptide conjugate to each BSA molecule.
2. Preparation of Plates for Adhesion Assay
We coated the wells of a Linbro titertek polystyrene 96-well flat bottom plate (Flow Laboratories, Maclean, Va.; catalog #76-231-05) with 100 μL of the above-described BSA-CS1 solution diluted to 1 μg/mL in 0.05 M NaHCO3 (15 mM NaHCO3, 35 mM Na2CO3) pH 9.2. Some wells were not coated with CS1 in order to assess non-specific cell binding (NSB). The plate was then incubated overnight at 4° C.
Following this incubation, the contents of the wells were removed by inverting and blotting the plate. All of the wells were then blocked with 100 μL of 1% BSA in PBS, 0.02% NaN3, for a minimum of one hour at room temperature.
3. Preparation of Fluorescently Labelled Ramos Cells
Ramos cells are grown, maintained and labelled in RPMI 1640 culture medium containing 1% BSA. Just prior to running the assay, we added 2′,7′-bis-(2-carboxyethyl)-5 (and -6) carboxyfluorescein acetoxymethyl ester (“BCECF-AM”; Molecular Probes Inc., Eugene, Oreg.; catalog #B-1150) to a final concnetration of 2 μM to a culture of Ramos cells (4×10^6 cells/mL). We incubated the cells for 20 minutes at 37° C.
Following labelling, the cells were washed twice in assay buffer (24 mM TRIS, 137 mM NaCl, 2.7 mM KCl, pH 7.4, containing 0.1% BSA and 2 mM glucose) to remove any cations originating from the culture medium. The cells were then resuspended in assay buffer to 4×10^6 cells/mL and 2 mM MnCl2 was added to upregulate VLA4 on the surface of the cells.
Immediately prior to running the assay, we removed the BSA blocking solution from the 96-well plates and washed the wells with 100 μL of assay buffer. We then added to each well 25 μL of test compound at 2× the final concentration and 25 μL of the labelled Ramos cells. […]

T1 sequence (P13612 34-1032): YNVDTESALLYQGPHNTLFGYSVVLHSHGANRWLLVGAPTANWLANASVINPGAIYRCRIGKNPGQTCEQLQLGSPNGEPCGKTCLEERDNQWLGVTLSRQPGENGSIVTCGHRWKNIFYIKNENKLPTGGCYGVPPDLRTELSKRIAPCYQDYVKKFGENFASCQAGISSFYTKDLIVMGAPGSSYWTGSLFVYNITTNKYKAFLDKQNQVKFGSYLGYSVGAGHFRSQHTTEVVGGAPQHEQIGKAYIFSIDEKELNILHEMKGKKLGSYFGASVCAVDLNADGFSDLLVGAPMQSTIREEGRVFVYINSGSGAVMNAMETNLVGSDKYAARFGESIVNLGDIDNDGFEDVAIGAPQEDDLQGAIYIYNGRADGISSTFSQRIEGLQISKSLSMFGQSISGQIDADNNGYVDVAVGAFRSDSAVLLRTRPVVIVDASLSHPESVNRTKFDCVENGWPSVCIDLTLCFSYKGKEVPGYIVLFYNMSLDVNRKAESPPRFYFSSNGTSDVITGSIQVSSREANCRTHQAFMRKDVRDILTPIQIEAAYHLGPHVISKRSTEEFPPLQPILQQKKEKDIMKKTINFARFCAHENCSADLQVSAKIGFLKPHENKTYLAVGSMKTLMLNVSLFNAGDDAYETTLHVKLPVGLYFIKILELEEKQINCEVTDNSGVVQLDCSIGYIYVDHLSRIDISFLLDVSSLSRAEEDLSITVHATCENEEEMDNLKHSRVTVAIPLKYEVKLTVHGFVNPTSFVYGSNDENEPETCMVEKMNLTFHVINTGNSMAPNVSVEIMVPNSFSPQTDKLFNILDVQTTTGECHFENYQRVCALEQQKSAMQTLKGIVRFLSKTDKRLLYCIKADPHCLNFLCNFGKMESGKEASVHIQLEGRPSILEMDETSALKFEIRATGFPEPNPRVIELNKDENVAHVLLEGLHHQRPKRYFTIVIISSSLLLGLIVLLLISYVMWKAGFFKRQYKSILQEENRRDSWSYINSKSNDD
T1 sequence (P05556 21-798): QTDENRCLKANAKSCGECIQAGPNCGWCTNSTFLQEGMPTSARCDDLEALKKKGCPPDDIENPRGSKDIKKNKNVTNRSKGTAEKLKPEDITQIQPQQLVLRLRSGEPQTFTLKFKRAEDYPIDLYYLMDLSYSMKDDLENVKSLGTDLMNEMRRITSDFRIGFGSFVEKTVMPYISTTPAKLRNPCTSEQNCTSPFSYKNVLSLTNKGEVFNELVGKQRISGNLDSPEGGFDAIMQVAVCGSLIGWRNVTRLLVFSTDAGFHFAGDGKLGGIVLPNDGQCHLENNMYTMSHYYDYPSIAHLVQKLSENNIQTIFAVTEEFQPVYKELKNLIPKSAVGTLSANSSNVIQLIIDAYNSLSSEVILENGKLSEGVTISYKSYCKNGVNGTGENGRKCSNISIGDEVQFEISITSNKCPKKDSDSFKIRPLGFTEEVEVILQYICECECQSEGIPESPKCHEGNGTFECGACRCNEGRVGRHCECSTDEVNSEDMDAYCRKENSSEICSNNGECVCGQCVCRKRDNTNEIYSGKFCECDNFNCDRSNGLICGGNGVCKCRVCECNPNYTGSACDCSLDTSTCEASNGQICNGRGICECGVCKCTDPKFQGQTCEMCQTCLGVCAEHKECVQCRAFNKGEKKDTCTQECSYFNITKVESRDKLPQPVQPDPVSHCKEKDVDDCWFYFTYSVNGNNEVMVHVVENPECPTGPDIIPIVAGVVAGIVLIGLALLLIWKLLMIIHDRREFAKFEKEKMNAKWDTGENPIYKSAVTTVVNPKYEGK

Structure (SMILES): Cc1ccc(NC(=O)Nc2ccc(CC(=O)NC(CC(C)C)C(=O)NC(CC(=O)O)c3ccc4c(c3)OCO4)cc2)cc1 (stereo not shown) [BIO-1067]
- pIC50: 5.00 to 7.30

Structure (SMILES): CC(C)CC(NC(=O)Cc1ccc(NC(=O)NC(C)(C)C)cc1)C(=O)NC(CC(=O)O)c1ccc2c(c1)OCO2 (stereo not shown) [BIO-1076]
- pIC50: 5.00 to 7.30

Structure (SMILES): CC(C)CC(NC(=O)CC(c1ccccc1)c1ccccc1)C(=O)NC(CC(=O)O)c1ccccc1 (stereo not shown) [BIO-1099]
- pIC50: < 5.00

Structure (SMILES): CC(C)CC(NC(=O)Nc1ccc([N+](=O)[O-])cc1)C(=O)NC(CC(=O)O)c1ccccc1 (stereo not shown) [BIO-1108]
- pIC50: < 5.00

Structure (SMILES): CC(C)CC(NC(=O)Cc1ccc(NC(=O)Nc2ccccc2)cc1)C(=O)NC(CC(=O)O)c1ccc2c(c1)OCO2 (stereo not shown) [BIO-1128]
- pIC50: 5.00 to 7.30

Structure (SMILES): O=C(O)CC(NC(=O)C(CSCc1ccccc1)NC(=O)Cc1ccc(NC(=O)Nc2ccccc2)cc1)c1ccccc1 (stereo not shown) [BIO-1136]
- pIC50: 5.00 to 7.30

Structure (SMILES): COc1cccc(C(CC(=O)O)NC(=O)C(CC(C)C)NC(=O)Cc2ccccc2)c1 (stereo not shown) [BIO-1160]
- pIC50: 5.00 to 7.30

Structure (SMILES): CC(C)CNC(=O)C(CC(=O)O)NC(=O)C(CC(C)C)NC(=O)Cc1ccc(NC(=O)Nc2ccccc2)cc1 (stereo not shown) [BIO-1186]
- pIC50: 5.00 to 7.30

Structure (SMILES): COc1ccc(C(CC(=O)O)NC(=O)C(CC(C)C)NC(=O)Cc2ccc(NC(=O)Nc3ccccn3)cc2)cc1 (stereo not shown) [BIO-1194]
- pIC50: > 7.30

Structure (SMILES): CC(C)CC(NC(=O)Cc1ccc(NC(=O)Nc2ccccc2)cc1)C(=O)NC(CC(=O)O)c1ccc(F)c(F)c1 (stereo not shown) [BIO-1195]
- pIC50: > 7.30

Structure (SMILES): Cc1ccccc1NC(=O)Nc1ccc(CC(=O)NC(CC(C)C)C(=O)NC(CC(=O)O)c2ccccc2)cc1 (stereo not shown) [BIO-1197]
- pIC50: > 7.30

Structure (SMILES): COc1ccc(C(CC(=O)O)NC(=O)C(CC(C)C)NC(=O)Cc2ccc(NC(=O)Nc3ccccc3C)cc2)cc1OC (stereo not shown) [BIO-1212]
- pIC50: > 7.30

Structure (SMILES): Cc1ccccc1NC(=O)Nc1ccc(CC(=O)NC(CSCCCO)C(=O)NC(CC(=O)O)c2ccc3c(c2)OCO3)cc1 (stereo not shown) [BIO-1246]
- pIC50: > 7.30

Structure (SMILES): COC(=O)NCCCCC(NC(=O)Cc1ccc(NC(=O)Nc2ccccc2C)cc1)C(=O)NC(CC(=O)O)c1ccc2c(c1)OCO2 (stereo not shown) [BIO-1272]
- pIC50: > 7.30

Structure (SMILES): COC(=O)NCCCCC(NC(=O)Cc1ccc(NC(=O)Nc2ncccc2C)cc1)C(=O)NC(CC(=O)O)c1ccc(OC)c(OC)c1 (stereo not shown) [BIO-1311]
- pIC50: 5.00 to 7.30

Structure (SMILES): CC(C)CC(NC(=O)Cc1ccc(NC(=O)n2ccc3ccccc32)cc1)C(=O)NC(CC(=O)O)c1ccc2c(c1)OCO2 (stereo not shown) [BIO-1327]
- pIC50: 5.00 to 7.30

Structure (SMILES): Cc1ccccc1NC(=O)Nc1ccc(CC(=O)NC(CSCCN(C)C)C(=O)NC(CC(=O)O)c2ccc3c(c2)OCO3)cc1 (stereo not shown) [BIO-1345]
- pIC50: > 7.30

Structure (SMILES): COc1ccc(C(CC(=O)O)NC(=O)C(CCSC)NC(=O)Cc2ccc(NC(=O)Nc3ccccn3)cc2)cc1OC (stereo not shown) [BIO-1347]
- pIC50: > 7.30

Structure (SMILES): CC(C)CC(NC(=O)Cc1ccc(NC(=S)Nc2ccccc2)cc1)C(=O)NC(CC(=O)O)c1ccc2c(c1)OCO2 (stereo not shown) [BIO-1358]
- pIC50: 5.00 to 7.30

Structure (SMILES): Cc1ccccc1NC(=O)Nc1ccc(CC(=O)NC(CC(C)C)C(=O)NC(CC(=O)O)c2ccc3c(c2)CCO3)cc1 (stereo not shown) [BIO-1360]
- pIC50: > 7.30

Structure (SMILES): COC(=O)c1ccc(C(CC(=O)O)NC(=O)C(CCSC)NC(=O)Cc2ccc(NC(=O)Nc3ccccc3C)cc2)cc1 (stereo not shown) [BIO-1361]
- pIC50: > 7.30

Structure (SMILES): COC(=O)c1ccc(C(CC(=O)O)NC(=O)C(CC(C)C)NC(=O)Cc2ccc(NC(=O)Nc3ccccc3)cc2)cc1 (stereo not shown) [BIO-1388]
- pIC50: > 7.30

Structure (SMILES): CSCCC(NC(=O)Cc1ccc(NC(=O)Nc2ccccn2)cc1)C(=O)NC(CC(=O)O)c1ccc2c(c1)OCO2 (stereo not shown) [BIO-1393]
- pIC50: > 7.30

Structure (SMILES): CC(C)CC(NC(=O)Cc1ccc(Nc2nc3ccccc3o2)cc1)C(=O)NC(CC(=O)O)c1ccc2c(c1)OCO2 (stereo not shown) [BIO-1396]
- pIC50: 5.00 to 7.30

Structure (SMILES): Cc1ccccc1NC(=O)Nc1ccc(CC(=O)NC(CC(C)C)C(=O)NC(CCc2ccccc2)CC(=O)O)cc1 (stereo not shown) [BIO-1400]
- pIC50: > 7.30

Structure (SMILES): CSCCC(NC(=O)Cc1ccc(NC(=O)Nc2ncccc2C)cc1)C(=O)NC(CC(=O)O)c1ccc2c(c1)OCO2 (stereo not shown) [BIO-1429]
- pIC50: 5.00 to 7.30

Structure (SMILES): CC(C)CC(NC(=O)Cc1ccc(NC(=O)c2ccc[nH]2)cc1)C(=O)NC(CC(=O)O)c1ccc2c(c1)OCO2 (stereo not shown) [BIO-1474]
- pIC50: 5.00 to 7.30

Structure (SMILES): C=CCNC(=O)Nc1ccc(CC(=O)NC(CC(C)C)C(=O)NC(CC(=O)O)c2ccc3c(c2)OCO3)cc1 (stereo not shown) [BIO-1475]
- pIC50: 5.00 to 7.30

Structure (SMILES): C#CC(CC(=O)O)NC(=O)C(CC(C)C)NC(=O)Cc1ccc(NC(=O)Nc2ccccc2C)cc1 (stereo not shown) [BIO-1490]
- pIC50: > 7.30

Structure (SMILES): C=CCC(CC(=O)O)NC(=O)C(CC(C)C)NC(=O)Cc1ccc(NC(=O)Nc2ccccc2C)cc1 (stereo not shown) [BIO-1515]
- pIC50: > 7.30

Structure (SMILES): COc1ccc(C(CC(=O)O)NC(=O)C(CC(C)C)NC(=O)Cc2ccc(NC(=O)Nc3ccccc3F)cc2)cc1OC (stereo not shown) [BIO-1525]
- pIC50: 5.00 to 7.30

Structure (SMILES): COc1ccc(C(CC(=O)O)NC(=O)C(CC(C)C)NC(=O)Cc2ccc(NC(=O)Nc3ccc(F)cc3)cc2)cc1OC (stereo not shown) [BIO-1526]
- pIC50: 5.00 to 7.30

Structure (SMILES): Cc1ccccc1NC(=O)Nc1ccc(CC(=O)NC(CC(C)C)C(=O)NC(C)CC(=O)O)cc1 (stereo not shown) [BIO-1536]
- pIC50: > 7.30

Structure (SMILES): Cc1ccccc1NC(=O)Nc1ccc(CC(=O)NC(CC(C)C)C(=O)NCCC(=O)O)cc1 (stereo not shown) [BIO-1594]
- pIC50: 5.00 to 7.30

Structure (SMILES): CC(C)CC(NC(=O)Cc1ccc(NC(=O)c2cc3ccccc3[nH]2)cc1)C(=O)NCCC(=O)O (stereo not shown) [BIO-1648]
- pIC50: 5.00 to 7.30

Structure (SMILES): CC(C)CC(NC(=O)Cc1ccc(NC(=O)c2c[nH]c3ccccc23)cc1)C(=O)NC(CC(=O)O)c1ccc2c(c1)OCO2 (stereo not shown) [BIO-1655]
- pIC50: 5.00 to 7.30

Structure (SMILES): Cc1ccccc1NC(=O)Nc1ccc(CC(=O)NC(CC(C)C)C(=O)NC(CC(=O)O)CN2CCOCC2)cc1 (stereo not shown) [BIO-1721]
- pIC50: 5.00 to 7.30
